# Measurements reported in US9505768B2, “Compositions and methods for modulating TLR4” (The Regents of the University of California, priority 2012, dated 2016).
# Like-named read-outs stand apart in the source and are kept apart here.
# Experiments:
# [1] = tested on: C57BL/6 mice; experiment: Protection from LPS/galactosamine-induced lethal liver injury; assay type: in vivo, mouse
# Procedure: FIGS. 11A-11B depict that administration of Cmpd 42 and Cmpd 33 protects hosts from LPS-induced lethal liver injury. FIG. 11A: Schematic showing that C57BL/6 mice were intraperitoneously injected with 500 nmol Cmpd. 42 (n=11) or Cmpd 33 (n=11). 40 μg MPLA (n=9) and vehicle (n=9) were used as positive and negative controls, respectively. Next day, mice were challenged with LPS (0.2 μg/animal) and galactosamine (12 mg/animal). FIG. 11B: Histogram showing results of sera collected 1.5 h post challenge and measured for TNFα. *:p<0.05 compared to vehicle treated mice.
# Lipopolysaccharide (LPS), a TLR4 ligand, causes severe lethal liver injury when administered with galactosamine. Pretreatment of mice with MPLA is known to improve the survival in this model. To study whether Cmpd 42 and Cmpd 33 are able to act as immunomodulatory agents similar to MPLA, the mice were treated with Cmpd 42 or Cmpd 33 and challenged with LPS/galatosamine the next day, as depicted in FIG. 11A. Over 80% of Cmpd 42 and 100% of Cmpd 33-treated mice survived.
# [2] = Oral bioavailability in mice (serum LC/MS); assay type: in vivo; details: mouse, C57BL/6 mice, 1 μmol oral vs 500 nmol i.v., AUC method
# Procedure: FIG. 14 depicts time course showing that Cmpd 42 is orally bioavailable in mice. C57BL/6 mice were intravenously (500 nmol) or orally (1 μmol) administered with Cmpd 42. Sera were collected at the indicated time point and concentration of the compound were measured by LC/MS. Legend: oral administration, closed circle; i.v. administration, closed box. X-axis: time (min). Y-axis: concentration of Cmpd 42 (nM).
# To test oral bioavailability, Cmpd 42 was orally or intravenously administered to C57BL/6 mice and the drug concentration in sera was measured. Results are depicted in FIG. 14.
# [3] = molecular target: T1, mouse TLR4 (Mus musculus, UniProt Q9JHF9+Q9QUK6); experiment: Murine TLR4 HEK Blue NFκB/SEAP reporter assay; assay type: cell-based; details: mTLR4 HEK transfectoma, 312 nM to 10 μM; Cmpd 1 set at 100
# T1 construct: host or cells: HEK293 (HEK Blue) cells with NFκB/SEAP reporter
# T1 sequence (Q9QUK6 26-835): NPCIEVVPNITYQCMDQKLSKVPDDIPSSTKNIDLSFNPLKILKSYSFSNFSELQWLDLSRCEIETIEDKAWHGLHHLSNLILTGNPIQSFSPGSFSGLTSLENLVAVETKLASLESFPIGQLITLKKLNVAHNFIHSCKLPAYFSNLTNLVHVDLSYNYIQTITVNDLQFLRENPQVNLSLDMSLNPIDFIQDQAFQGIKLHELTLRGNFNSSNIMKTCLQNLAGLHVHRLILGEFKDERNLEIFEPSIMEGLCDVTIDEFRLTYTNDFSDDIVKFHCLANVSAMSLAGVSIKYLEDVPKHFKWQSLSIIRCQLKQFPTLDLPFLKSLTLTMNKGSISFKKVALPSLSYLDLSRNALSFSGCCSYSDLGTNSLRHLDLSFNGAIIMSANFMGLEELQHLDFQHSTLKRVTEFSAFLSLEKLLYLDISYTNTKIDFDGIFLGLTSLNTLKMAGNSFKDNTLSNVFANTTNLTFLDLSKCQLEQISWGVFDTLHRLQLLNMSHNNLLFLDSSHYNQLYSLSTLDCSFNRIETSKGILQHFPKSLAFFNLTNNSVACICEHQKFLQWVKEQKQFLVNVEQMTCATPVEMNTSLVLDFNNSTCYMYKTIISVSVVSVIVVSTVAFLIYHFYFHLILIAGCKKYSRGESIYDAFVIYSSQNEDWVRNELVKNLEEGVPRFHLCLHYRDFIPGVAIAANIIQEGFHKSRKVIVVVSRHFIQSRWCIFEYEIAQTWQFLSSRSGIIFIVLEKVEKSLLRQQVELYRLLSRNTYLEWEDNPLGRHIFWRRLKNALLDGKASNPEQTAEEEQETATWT
# T1 sequence (Q9JHF9 19-160): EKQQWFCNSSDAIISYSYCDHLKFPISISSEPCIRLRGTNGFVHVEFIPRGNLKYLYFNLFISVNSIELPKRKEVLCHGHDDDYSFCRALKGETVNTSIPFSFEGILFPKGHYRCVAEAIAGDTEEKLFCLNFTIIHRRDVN
# [4] = tested on: mouse bone marrow derived dendritic cells (mBMDC); experiment: IP-10 induction in mBMDC (ELISA), surrogate marker of type I IFN; assay type: cell-based; details: 5 μM overnight, vs C57BL/6 WT
# [5] = molecular target: T2, human TLR4 (Homo sapiens, UniProt O00206+Q9Y6Y9); experiment: Human TLR4 HEK Blue NFκB/SEAP reporter assay; assay type: cell-based; details: hTLR4 HEK293 transfectoma; all compounds tested at 10 μM; Cmpd 1 set at 100
# T2 construct: host or cells: HEK293 (HEK Blue) cells with NFκB/SEAP reporter
# T2 sequence (O00206 24-839): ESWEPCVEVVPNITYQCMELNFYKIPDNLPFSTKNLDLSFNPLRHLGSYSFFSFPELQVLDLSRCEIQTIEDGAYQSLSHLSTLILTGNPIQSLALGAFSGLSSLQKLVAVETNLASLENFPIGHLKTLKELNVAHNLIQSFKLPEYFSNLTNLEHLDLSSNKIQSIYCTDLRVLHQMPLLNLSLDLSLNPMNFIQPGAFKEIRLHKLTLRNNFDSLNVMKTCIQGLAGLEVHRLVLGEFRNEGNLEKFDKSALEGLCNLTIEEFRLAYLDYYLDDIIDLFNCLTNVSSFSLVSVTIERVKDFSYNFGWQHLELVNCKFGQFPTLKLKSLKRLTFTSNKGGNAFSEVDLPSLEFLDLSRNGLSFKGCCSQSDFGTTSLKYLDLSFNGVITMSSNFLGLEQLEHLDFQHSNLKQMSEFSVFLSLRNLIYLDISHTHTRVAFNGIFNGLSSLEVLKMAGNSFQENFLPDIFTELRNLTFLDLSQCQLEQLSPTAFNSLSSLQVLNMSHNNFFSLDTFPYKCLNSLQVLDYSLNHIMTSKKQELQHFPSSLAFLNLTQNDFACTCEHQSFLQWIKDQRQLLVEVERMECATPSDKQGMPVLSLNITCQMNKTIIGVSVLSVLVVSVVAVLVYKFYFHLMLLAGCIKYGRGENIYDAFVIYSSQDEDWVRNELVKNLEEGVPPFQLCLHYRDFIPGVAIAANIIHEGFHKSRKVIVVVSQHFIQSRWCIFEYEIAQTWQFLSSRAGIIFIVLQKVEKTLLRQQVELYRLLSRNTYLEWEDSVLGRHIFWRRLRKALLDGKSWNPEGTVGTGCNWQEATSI
# T2 sequence (Q9Y6Y9 19-160): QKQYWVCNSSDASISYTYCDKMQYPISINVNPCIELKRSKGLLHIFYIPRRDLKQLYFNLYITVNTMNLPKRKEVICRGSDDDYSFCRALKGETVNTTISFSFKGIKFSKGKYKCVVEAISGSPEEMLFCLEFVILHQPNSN
# [6] = tested on: mouse bone marrow derived dendritic cells (mBMDC); experiment: IL-6 induction in mouse bone marrow derived dendritic cells (ELISA); assay type: cell-based; details: relative to Cmpd 1 / within series
# [7] = tested on: mBMDC; experiment: MTT viability assay in mBMDC; details: 18 h, concentrations up to 10 μM
# Procedure: Cytotoxicity of the compounds was evaluated by MTT assay as a measure of viability. mBMDC (10^5/well) were incubated with graded concentrations of the compounds for 18 h and compared with vehicle (0.5% DMSO) and MPLA (1 μg/mL). […] (FIG. 6B) The cells were lysed after the overnight incubation with MTT reagents, and absorbance at 570 nm was measured, subtracting the reference absorbance at 650 nm. Data shown are mean±SEM of triplicates and are representative of two independent experiments showing similar results.
# [8] = tested on: mouse bone marrow derived dendritic cells (mBMDC); experiment: IL-6 induction in mouse bone marrow derived dendritic cells (ELISA); assay type: cell-based; details: 5 μM overnight, vs C57BL/6 WT
# [9] = tested on: C57BL/6 mice; details: in vivo
# [10] = tested on: mouse bone marrow derived dendritic cells (mBMDC); experiment: IP-10 induction in mBMDC (ELISA), surrogate marker of type I IFN; assay type: cell-based; details: relative to Cmpd 1
# Procedure: In addition to the production of inflammatory cytokines (IL-6, IL-12, TNFα, etc.) mediated by NFκB activation, TLR4 signaling can result in the production of type I interferons, a feature that is not only important for activation of dendritic cells leading to good adjuvant activity, but would also be important for rapid defense against a variety of pathogens, particularly viruses. […] To determine the relative ability of all compounds to induce the production of type 1 IFN, each was evaluated in mouse bone marrow derived dendritic cells as shown in Tables 1-3.
# BMDC were prepared from C57BL/6 mice as described. See e.g., Wu, C. […] BMDC (10^5 cells per well) were plated in 96-well plates in 200 μL of complete RPMI1640 supplemented with 10% fetal calf serum (FCS; Sigma Aldrich), 100 U/mL penicillin, and 100 μg/mL streptomycin (Invitrogen). […] After 18 h incubation, the cell culture supernatants were collected. LPS (purified LPS, Invivogen, San Diego, Calif.) or MPLA (1 μg/mL synthetic MPLA, Invivogen, San Diego, Calif.) were used as positive controls. […] The AUC was calculated from BMDC dose-response curves using Prism 5 (GraphPad, San Diego). Each cytokine induction curve was first converted to a percent activity curve, and then the AUC of the percent activity curve was calculated. The process of converting to a percent activity curve allowed subtracting background and adjusting for plate-to-plate variation.
# In addition, the levels of IP-10, a surrogate marker of type I IFN, in the supernatants were determined by ELISA (R&D Systems, Minneapolis, Minn.).
compound,measurement,setting,value
"Cn1c2ccccc2c2nc(SCC(=O)NC3CCCCC3)n(-c3ccccc3)c(=O)c21 [Compound 42, N-cyclohexyl-2-((5-methyl-4-oxo-3-phenyl-4,5-dihydro-3H-pyrimido[5,4-b]indol-2-yl)thio)acetamide]",serum TNFα,"[1]; […] post challenge, compared to vehicle treated mice",significantly lower level
same,mice survived,"[1]; i.p. pretreatment 500 nmol, LPS/galactosamine challenge next day",Over 80%
same,Survival,"[1]; i.p. pretreatment (500 nmol Cmpd, 40 μg MPLA), next day LPS 0.2 μg + galactosamine 12 mg per animal, survivors/treated",9/11
same,bioavailability,[2],~15%
same,"mouse TLR4, area under curve (AUC) values normalized to Cmpd 1",[3],100
same,IP-10 induction in LPS mutant (Trif lps/lps) cells,[4],significantly decreased
same,"human TLR4, values normalized to Cmpd 1",[5],92
same,IL-6 activity in mBMDC (in words),[6],high IL-6
same,cell viability (MTT),[7],did not reduce cell viability
same,IL-6 secretion in MyD88 null dendritic cells,[8],significantly impaired
same,mice survived,"[9]; C57BL/6, mouse",100%
same,maximum tolerated dose relative to MPLA,[9]; mouse,> 10 times
same,serum TNFα,[9]; mouse,significantly lower level
same,IP-10 production in mBMDC (in words),[10],high IP-10 production
